Literature values, collected in US8497290B2, “Thiocolchicine derivatives, method of making and methods of use thereof” (priority 2009, dated 2013).

System: rat model
Conditions: metabolites of thiocolchicoside, compared with thiocolchicoside

COc1c(O[C@@H]2O[C@H](C(=O)O)[C@@H](O)[C@H](O)[C@H]2O)cc2c(c1OC)-c1ccc(SC)c(=O)cc1[C@@H](NC(C)=O)CC2 [3-O-glucuronidated aglycone derivative, (7S)-7-(acetylamino)-5,6,7,9-tetrahydro-1,2-dimethoxy-10-(methylthio)-9-oxobenzo[a]heptalen-3-yl β-D-glucopyranosiduronic acid]
muscle relaxant activity: muscle relaxant activity similar to that of thiocolchicoside
